Laboratory results from US6627749B1 (University of Iowa Research Foundation, priority 1999, dated 2003).
Values after ≈ are worked out from the molar mass of the structure shown.

Assays:
[1] = Stability of CPT standard solutions (HPLC); assay type: physicochemical
Procedure: The lactone and carboxylate forms of CPT were analyzed by HPLC using a fully-automated Shimadzu LC-10 system, equipped with a fluorescence detector, a Supelco's C-18 discovery column (15 cm×4.6 mm, 5 am Supelco Park, Bellefonte, Pa.) and a guard column. The detector was set at an excitation wavelength of 370 nm and an emission wavelength of 435 nm. The mobile phase consisted of a 73.27 (v/v) mixture of triethylamine-acetate buffer (0.1% triethylamine, adjusted with glacial acetic acid to pH 5.5) and acetonitrile. A flow rate of 1 ml/min and an injection volume of 20 μl were used in the analysis. To avoid carryover between successive injections, the injector was washed thoroughly with methanol. The standard solutions of CPT-lactone and CPT-carboxylate were made by dilution of the CPT stock solution in dimethylsulfoxide (DMSO) with 0.02M HC1 and 0.02M NaOH solutions, respectively. The analysis of the CPT-lactone was performed immediately, whereas that of CPT-carboxylate 30 min. after making the solution. Standard solutions of CPT-lactone and CPT-carboxylate were stable for two weeks at 4° C. and for 24 hours at room temperature.

[2] = In-vitro dissolution of CPT in pH 7.4 phosphate buffer (dialysis bag); assay type: physicochemical; settings: 0.02% Tween 80, 37° C., sink conditions
Procedure: The dissolution of CPT from microspheres and physical mixtures and that of free CPT was evaluated in pH 7.4 phosphate buffer solution (composition: 137 mM NaCl, 3 mM KC1, 8 mM Na2HPO4, 1 mM KH2PO4), containing 0.02% Tween 80 at 37° C. under sink conditions. Briefly, an accurately weighed amount of microspheres was suspended in the buffer medium. The suspension was placed in a dialysis bag (MWCO […], Snakeskin™) and then dialyzed against the buffer solution. 1 ml of the release medium was removed at the predetermined time intervals. To maintain the sink condition, an equal volume of the fresh buffer solution was immediately added to the release medium. The concentrations of both lactone and carboxylate forms of CPT in the release media were determined by HPLC assay.

[3] = test system: human-derived lymphoid RPMI-8402 leukemia cells; experiment: Cytotoxicity, inhibition of DNA synthesis (3H-thymidine); assay type: cell-based; settings: lymphoid RPMI-8402 cells
Procedure: (§1) The cytotoxicity of free CPT and OC—(COOH 20%)/CPT microspheres was evaluated against human-derived lymphoid RPMI-8402 (FIG. 7) and myeloid THP-1 leukemia cell lines (see FIG. 6). […] The cells were diluted to 1×10^6 cells/ml in RPMI 1640 media, supplemented with 1% pen/strep, 1% glutamine, and 10% fetal calf serum, and plated in triplicate at the 2×10^5 cells/well in a 96 well plate. CPT or OC—(COOH 20%)/CPT microspheres were then added, at the equal concentrations, to the wells and the cells were incubated for 20 hours at 37° C. and in 5% CO2. Radiolabeled thymidine (0.04 μci/well) was added to each well at 20 hours and 24 hours. The cells were harvested onto a Reeves Angel 934 AH filter using a Brandel automated cell harvester. Radiolabeled DNA was then measured as disintegration per minute (dpm) by scintillation spectroscopy.

[4] = test system: human-derived myeloid THP-1 leukemia cells; experiment: as above; assay type: cell-based; settings: myeloid THP-1 cells
Procedure: as §1

Structure (SMILES): CCC(O)(C(=O)O)c1cc2n(c(=O)c1CO)Cc1cc3ccccc3nc1-2 (stereo not shown) [CPT-carboxylate]
- stability of standard solution ([1]; at 4° C.): two weeks
- stability of standard solution ([1]; at room temperature): 24 h

Structure (SMILES): CC[C@@]1(O)C(=O)OCc2c1cc1n(c2=O)Cc2cc3ccccc3nc2-1 [CPT-lactone]
- stability of standard solution ([1]; at 4° C.): two weeks
- stability of standard solution ([1]; at room temperature): 24 h

Structure (SMILES): CC[C@@]1(O)C(=O)OCc2c1cc1n(c2=O)Cc2cc3ccccc3nc2-1 [Free CPT, 20(S)-camptothecin]
- T-50 (hrs), dissolution of CPT [2]: 118.6 h
- ED50 [3]: 0.025 mg/L (≈ 0.0718 µM)
- ED50 [4]: 0.75 mg/L (≈ 2.15 µM)
